Molecular target: T1, ACE2: SARS-CoV-2 Spike complex (UniProt P0DTC2+Q9BYF1)
T1 construct: BPS Bioscience Cat: 79936; inferred from capture on a nickel-coated plate; inferred from detection with anti-mouse Fc-HRP; purchased BPS Bioscience 79936
Assay: biochemical
Type: binding, human ACE2 / SARS-CoV-2 spike

Row | SMILES | Lab Results | IC50 [nM] | activity against the complex of the spike protein and ACE2
1 | CC(=O)N[C@H]1C(O)O[C@H](CO)[C@@H](O[C@@H]2O[C@H](CO)[C@H](O)[C@H](O)[C@H]2O)[C@@H]1O (stereo partly shown) [N-Acetyllactosamine] | P (key: P: positive (interacting); N: negative (non-interacting)) |  | 
2 | CC(=O)N[C@H]1[C@H]([C@H](O)[C@H](O)CO)OC(O)(C(=O)O)C[C@@H]1O (stereo partly shown) [N-acetyl-neuraminic, N-acetyl-neuraminic acid] | P (key: P: positive (interacting); N: negative (non-interacting)) | 19 | 
3 | N.O=C(O)C(=O)C[C@@H](O)[C@@H](O)[C@H](O)[C@H](O)CO [2-keto-3-deoxyoctonate ammonium salt, 2-Keto-3-deoxyoctonate ammonium salt] | P (key: P: positive (interacting); N: negative (non-interacting)) |  | 
4 | CC(C)CN(C[C@@H](O)[C@H](Cc1ccccc1)NC(=O)O[C@H]1CO[C@H]2OCC[C@H]21)S(=O)(=O)c1ccc(N)cc1 [darunavir, Darunavir, reference compound] | P (key: P: positive (interacting); N: negative (non-interacting)) | 5.5 | 
5 | OC[C@H]1O[C@H](OC[C@H]2O[C@H](OC[C@H]3OC(O)[C@@H](O)[C@@H](O[C@H]4O[C@H](CO)[C@@H](O)[C@H](O)[C@@H]4O)[C@@H]3O)[C@@H](O)[C@@H](O[C@H]3O[C@H](CO)[C@@H](O)[C@H](O)[C@@H]3O)[C@@H]2O)[C@@H](O)[C@@H](O)[C@@H]1O (stereo partly drawn) [3 α ,6 α -Mannopentaose] | N (key: P: positive (interacting); N: negative (non-interacting)) |  | inactive
6 | CC(=O)N[C@H]1[C@H]([C@H](O)[C@H](O)CO)O[C@](OP(=O)([O-])OC[C@H]2O[C@@H](n3ccc(N)nc3=O)[C@H](O)[C@@H]2O)(C(=O)O)C[C@@H]1O.[Na+] [cytidine-5-monophospho-N-acetylneuraminic acid sodium salt] | P (key: P: positive (interacting); N: negative (non-interacting)) |  | 
7 | O=C(CO)N[C@H]1[C@H]([C@H](O)[C@H](O)CO)O[C@](O)(C(=O)O)C[C@@H]1O [N-Glycolylneuraminic, N-glycolylneuraminic acid] | P (key: P: positive (interacting); N: negative (non-interacting)) |  | 
